According to patent US20240269170A1, “Treatment of Inflammatory Conditions or Diseases” (Queen Mary University of London, priority 2021, published 2024):

System: K/B×N serum induced arthritis in C57BL/6 mice
Assay: Sustained K/B×N serum induced arthritis, transfer of monocytes from arthritic mice incubated with MCTR3
Type: in vivo, mouse
Conditions: monocytes incubated with 10 μM RG108 for 15 min before 1 nM MCTR3
Procedure: (C-D) K/B×N serum (100 μL, i.p.) was administered to C57BL/6 mice on day 0, 2 and 9 to induce and prolong inflammatory arthritis and, on day 12, mice were treated i.v. with 2×10^6 monocytes isolated from arthritic mice and incubated with either vehicle (PBS+0.1% EtOH) or 1 nM MCTR3 for 90 min at 37° C. Disease course was monitored daily by assessing C) clinical scores and D) oedema. Results are mean±SEM. and expressed as percent change from day of treatment. n=9 per group from two distinct experiments. (E) On day 22 hind paws were harvested joints were fixed, sectioned, stained using H&E stain and leukocyte infiltration evaluated. Top and centre panels present representative images from each experimental group; bottom panel Quantitation of the scores in each of the group. Results are mean±SEM. n=8 mice per group. Statistical differences were evaluated using Mann-Whitney U test. IFP=intrapatellar fat, M=meniscus, TB=Tibia, PF=Pannus formation, arrows denote leukocyte infiltration. (F-G) Paws were harvested 10 days after treatment and lipid mediator profiles were determined using LC-MS/MS-based lipid mediator profiling and evaluated using PLS-DA. (F) scores plot with highlighted regions denoting the clusters representing cells from each group (G) VIP scores for top 15 mediators. Each dot in the score plot represents a separate mouse.
FIG. 4: Regulation of joint reparative pathways in mice receiving MCTR3-trained monocytes. K/B×N serum (100 μL, i.p.) was administered to C57BL/6 mice on day 0, 2 and 9 to induce and prolong inflammatory arthritis and, on day 12, mice were treated i.v. with 2×10^6 monocytes isolated from arthritic mice and incubated with either vehicle (PBS+0.1% EtOH) or 1 nM MCTR3 for 90 min. (A-C) On day 22 hind paws were harvested, fixed, and stained to evaluate A) proteoglycan content using Safranin-O staining; B) Col 2 and C) Col X expression was evaluated using immunofluorescence. Left panels present representative images from each experimental group, right panels provide a quantitative evaluation of the staining. Results are expressed as percent change vs Monocyte group. n=7-8 mice per group. Statistical differences were evaluated using Wilcoxon signed rank test. (D-I) Hind paws were also collected on day 22 to evaluate the expression of the indicated genes was evaluated using quantitative realtime PCR. Results are from n=5 mice per group. Statistical differences were evaluated using Mann Whitney-U test.
FIG. 5: MCTR3 reprograms the arthritic monocyte-derive macrophage transcriptome. A-B) Arthritis was induced and prolonged in C57BL/6 mice by administering 100 μL K/B×N serum i.p. on day 0, 2 and 9. Mice were treated on day 12 i.v. with 2×10^6 monocytes isolated from arthritic mice and incubated either with vehicle (PBS+0.1% DMSO) or 10 μM RG108, a DNMT inhibitor, for 15 min and then with a vehicle (PBS+0.1% EtOH) or 1 nM MCTR3 for 90 min (37° C.). Disease course was monitored daily by assessing A) clinical scores and B) oedema. Results are mean±SEM and expressed as percent change from day of treatment. n=10 mice per group. Statistical differences were evaluated using Two-way ANOVA. (C-E) K/B×N serum (100 μL, i.p.) was administered to mice on days 0, 2 and 9 to induce and prolong inflammatory arthritis. On day 12, mice were treated i.v. with 2×10^6 monocytes isolated from arthritic mice that were previously incubated with either vehicle (PBS+0.1% EtOH) or 1 nM MCTR3 for 90 min. Cells were isolated from paw joints on day 22, sorted for CD45^+ cells and single cell RNA sequencing was performed. […] Results are from n=4 mice per group. (F-G) Monocytes were isolated from human healthy volunteers, these cells were then incubated with GM-CSF (7 days, 37° C.) then with either Vehicle or MCTR3 (1 nM, 37° C.). Cells were lysed and the phosphoproteome determined using mass spectrometry. […]

O=C(O)C(Cc1c[nH]c2ccccc12)N1C(=O)c2ccccc2C1=O (centres unmarked) [RG108]
protective actions of MCTR3 (ability of reprogrammed monocytes to regulate joint inflammation): abolished
ability of MCTR3 to upregulate Arg-1 in PKH67+ CD64+ cells in vivo (day 22): reversed
